Measurements published in patent publication US9714247B2, “Multiple kinase pathway inhibitors” (Mannkind Corporation, priority 2012, dated 2017).
Like-named read-outs stand apart in the source and are kept apart here.

Assays:
Ramos = experiment: CellTiter-Glo proliferation/viability assay; format: cell-based, human
BTK = BTK (Homo sapiens (Human), UniProt Q06187)
Lyn [1] = target: T1, Lyn (Homo sapiens (Human), UniProt P07948); experiment: biochemical
DoHH2 = experiment: CellTiter-Glo proliferation/viability assay; format: cell-based, human; details: read-out: DoHH2 EC50
Src = Src (Homo sapiens (Human), UniProt P12931); details: read-out: Src IC50
Sequence of Src (P12931 whole entry, looked up): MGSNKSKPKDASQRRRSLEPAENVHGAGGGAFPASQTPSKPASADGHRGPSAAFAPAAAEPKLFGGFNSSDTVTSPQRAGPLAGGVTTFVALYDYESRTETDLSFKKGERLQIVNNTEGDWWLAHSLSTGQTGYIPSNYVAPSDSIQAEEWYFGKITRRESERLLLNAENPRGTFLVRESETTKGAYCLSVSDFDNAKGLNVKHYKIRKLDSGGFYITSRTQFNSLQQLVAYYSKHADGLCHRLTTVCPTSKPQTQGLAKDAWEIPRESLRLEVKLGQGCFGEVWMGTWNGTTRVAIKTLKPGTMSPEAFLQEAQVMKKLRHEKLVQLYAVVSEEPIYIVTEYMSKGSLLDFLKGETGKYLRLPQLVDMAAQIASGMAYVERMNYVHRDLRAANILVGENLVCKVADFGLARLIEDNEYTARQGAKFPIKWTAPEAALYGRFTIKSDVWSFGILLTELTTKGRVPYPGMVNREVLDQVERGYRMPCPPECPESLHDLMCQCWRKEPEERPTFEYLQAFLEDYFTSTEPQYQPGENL

Lyn [2] = target: T1, Lyn; details: read-out: Lyn IC50
[3] = Homo sapiens, Ramos, 48 h; read-out: Ramos EC50
[4] = Homo sapiens, Ramos; 48 hrs; read-out: Ramos EC50

Sequence of BTK (Q06187 whole entry): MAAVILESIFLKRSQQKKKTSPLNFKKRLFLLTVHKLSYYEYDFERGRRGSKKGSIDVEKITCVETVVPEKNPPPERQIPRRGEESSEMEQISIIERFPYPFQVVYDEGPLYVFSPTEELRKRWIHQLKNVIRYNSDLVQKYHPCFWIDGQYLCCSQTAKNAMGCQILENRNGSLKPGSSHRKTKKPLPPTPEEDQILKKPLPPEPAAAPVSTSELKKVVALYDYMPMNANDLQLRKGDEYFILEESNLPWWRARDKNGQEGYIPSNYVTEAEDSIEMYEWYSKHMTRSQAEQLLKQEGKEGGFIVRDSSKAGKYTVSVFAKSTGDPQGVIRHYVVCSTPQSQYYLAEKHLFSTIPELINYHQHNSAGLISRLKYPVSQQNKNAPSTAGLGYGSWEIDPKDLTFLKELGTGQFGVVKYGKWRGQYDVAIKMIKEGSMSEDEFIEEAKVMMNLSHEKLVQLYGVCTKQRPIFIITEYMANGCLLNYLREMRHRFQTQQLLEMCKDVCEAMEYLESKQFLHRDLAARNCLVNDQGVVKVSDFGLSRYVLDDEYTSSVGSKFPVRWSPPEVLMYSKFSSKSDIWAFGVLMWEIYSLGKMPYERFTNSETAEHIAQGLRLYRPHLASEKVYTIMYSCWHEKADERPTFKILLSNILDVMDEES
T1 sequence (P07948 whole entry): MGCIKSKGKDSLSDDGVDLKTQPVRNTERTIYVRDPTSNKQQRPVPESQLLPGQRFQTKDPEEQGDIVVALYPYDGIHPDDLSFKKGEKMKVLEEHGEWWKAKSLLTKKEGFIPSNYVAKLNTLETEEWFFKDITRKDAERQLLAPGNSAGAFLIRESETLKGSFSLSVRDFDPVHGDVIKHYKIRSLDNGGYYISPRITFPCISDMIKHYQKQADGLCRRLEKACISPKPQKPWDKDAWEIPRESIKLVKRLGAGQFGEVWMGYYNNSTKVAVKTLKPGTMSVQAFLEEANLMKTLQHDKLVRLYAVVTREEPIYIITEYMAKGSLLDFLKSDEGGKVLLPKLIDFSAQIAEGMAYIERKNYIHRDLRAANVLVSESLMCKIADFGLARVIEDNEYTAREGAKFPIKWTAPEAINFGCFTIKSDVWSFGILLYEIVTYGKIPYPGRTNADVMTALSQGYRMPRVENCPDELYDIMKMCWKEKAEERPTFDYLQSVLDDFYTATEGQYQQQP

Row | SMILES | EC50 (Ramos; [3]) | IC50 (BTK; read-out: BTK IC50) | IC50 (Lyn [1]) | IC50 (Src) | EC50 (Ramos; [4]) | IC50 (BTK) | EC50 (Ramos; 48 hrs; read-out: Ramos EC50) | IC50 (Lyn [2]) | EC50 (DoHH2; Homo sapiens, DOHH-2, 48 hrs) | EC50 (DoHH2; 48 hrs) | EC50 (Ramos; Homo sapiens, Ramos, 48 h, read-out: Ramos EC50) | EC50 (DoHH2; Homo sapiens, DOHH-2, 48 h)
1 | CCn1c(=O)c(-c2cccc(C)c2)cc2cnc(Nc3ccc(C)cn3)cc21 [Compound 41, 1-ethyl-7-(5-methylpyridin-2-ylamino)-3-m-tolyl-1,6-naphthyridin-2(1H)-one] | > 10 µM | > 5 µM | 1 to 5 µM | > 5 µM |  |  |  |  | > 10 µM |  |  | 
2 | CCn1c(=O)c(-c2nccs2)cc2cnc(Nc3ccc(C)cn3)cc21 [Compound 68] |  | > 5 µM | 1 to 5 µM | > 5 µM | > 10 µM |  |  |  | 1 to 10 µM |  |  | 
3 | CCN(CC)CCOc1ccc(Nc2cc3c(cn2)cc(-c2c(F)cc(Cl)cc2F)c(=O)n3CC)nc1 [Compound 98, 3-(4-chloro-2,6-difluorophenyl)-7-((5-(2-(diethylamino)ethoxy)pyridin-2-yl)amino)-1-ethyl-1,6-naphthyridin-2(1H)-one] |  | < 0.1 µM | 0.1 to 1 µM | < 0.1 µM | 1 to 10 µM |  |  |  | 1 to 10 µM |  |  | 
4 | CCn1c(=O)c(-c2ccccc2)cc2cnc(Nc3ccnc(O)n3)cc21 [Compound 63, 1-Ethyl-7-(2-hydroxy-pyrimidin-4-ylamino)-3-phenyl-1H-[1,6]naphthyridin-2-one] |  |  | 0.1 to 1 µM | < 0.1 µM | 1 to 10 µM | 1 to 5 µM |  |  | 1 to 10 µM |  |  | 
5 | CCn1c(=O)c(C2CCC2)cc2cnc(Nc3ccc(C)cn3)cc21 [Compound 37, 3-Cyclobutyl-1-ethyl-7-(5-methyl-pyridin-2-ylamino)-1H-[1,6]naphthyridin-2-one] |  |  | 1 to 5 µM | > 5 µM | > 10 µM | 0.1 to 1 µM |  |  | > 10 µM |  |  | 
6 | CCn1c(=O)c(-c2c(F)ccc(F)c2O)cc2cnc(Nc3ccc(N(C)C4CCN(C)CC4)cn3)cc21 [Compound 123, 3-(3,6-difluoro-2-hydroxyphenyl)-1-ethyl-7-((5-(methyl(1-methylpiperidin-4-yl)amino)pyridin-2-yl)amino)-1,6-naphthyridin-2(1H)-one] |  | < 0.1 µM |  | < 0.1 µM | 1 to 10 µM |  |  | < 0.1 µM | < 1 µM |  |  | 
7 | CCn1c(=O)c(C2CCCCC2)cc2cnc(Nc3ccc(C)cn3)cc21 [Compound 12, 3-Cyclohexyl-1-ethyl-7-(5-methyl-pyridin-2-ylamino)-1H-[1,6]naphthyridin-2-one] |  | > 5 µM |  | > 5 µM | > 10 µM |  |  | > 5 µM | > 10 µM |  |  | 
8 | CCn1c(=O)c(-c2c(O)cccc2Cl)cc2cnc(Nc3ccc(N(C)C4CCN(C)CC4)cn3)cc21 [Compound 122, 3-(2-chloro-6-hydroxyphenyl)-1-ethyl-7-((5-(methyl(1-methylpiperidin-4-yl)amino)pyridin-2-yl)amino)-1,6-naphthyridin-2(1H)-one] |  | < 0.1 µM |  | < 0.1 µM | 1 to 10 µM |  |  | < 0.1 µM | < 1 µM |  |  | 
9 | CCn1c(=O)c(-c2cc(SC)ccc2F)cc2cnc(Nc3ccc(N(C)C4CCN(C)CC4)cn3)cc21 [Compound 116, 1-ethyl-3-(2-fluoro-5-(methylthio)phenyl)-7-((5-(methyl(1-methylpiperidin-4-yl)amino)pyridin-2-yl)amino)-1,6-naphthyridin-2(1H)-one] |  |  | < 0.1 µM |  |  |  |  |  |  |  | 1 to 10 µM | < 1 µM
10 | O=c1c(-c2c(Cl)cccc2Cl)cc2cnc(Nc3ccc(F)cn3)cc2n1C1CCOC1 (single isomer, unassigned) [Compound 148, (R or S)-3-(2,6-dichlorophenyl)-7-((5-fluoropyridin-2-yl)amino)-1-(tetrahydrofuran-3-yl)-1,6-naphthyridin-2(1H)-one] |  | < 0.1 µM |  | < 0.1 µM |  |  | > 10 µM | < 0.1 µM |  | < 1 µM |  | 
11 | CCn1c(=O)c(-c2c(F)cccc2OC)cc2cnc(Nc3ccc(N(C)C4CCN(C)CC4)cn3)cc21 [Compound 118, 1-ethyl-3-(2-fluoro-6-methoxyphenyl)-7-((5-(methyl(1-methylpiperidin-4-yl)amino)pyridin-2-yl)amino)-1,6-naphthyridin-2(1H)-one] | 1 to 10 µM | < 0.1 µM |  | < 0.1 µM |  |  |  | < 0.1 µM | < 1 µM |  |  | 
12 | CCn1c(=O)c(-c2ccccc2Cl)cc2cnc(Nc3ccc(F)cn3)cc21 [Compound 71, 3-(2-chlorophenyl)-1-ethyl-7-(5-fluoropyridin-2-ylamino)-1,6-naphthyridin-2(1H)-one] |  |  | 0.1 to 1 µM | < 0.1 µM | > 10 µM | 1 to 5 µM |  |  | 1 to 10 µM |  |  | 
13 | CCn1c(=O)c(Br)cc2cnc(Nc3ccc(C)cn3)cc21 [Compound 88] | < 1 µM |  |  | < 0.1 µM |  | 0.1 to 1 µM |  | > 5 µM | < 1 µM |  |  | 

Further lines, with some results ahead:

Row | EC50 (Ramos; [3]) | IC50 (BTK; read-out: BTK IC50) | IC50 (Lyn [1]) | IC50 (Src) | EC50 (Ramos; [4]) | IC50 (BTK) | EC50 (Ramos; 48 hrs; read-out: Ramos EC50) | IC50 (Lyn [2]) | SMILES | EC50 (DoHH2; Homo sapiens, DOHH-2, 48 hrs) | EC50 (DoHH2; 48 hrs) | EC50 (Ramos; Homo sapiens, Ramos, 48 h, read-out: Ramos EC50) | EC50 (DoHH2; Homo sapiens, DOHH-2, 48 h)
14 |  | < 0.1 µM | 0.1 to 1 µM | > 5 µM | > 10 µM |  |  |  | CCN(CC)CCOc1ccc(Nc2cc3c(cn2)cc(-c2ccccc2Cl)c(=O)n3CC)nc1 [Compound 106, 3-(2-chlorophenyl)-7-((5-(2-(diethylamino)-ethoxy)pyridin-2-yl)amino)-1-ethyl-1,6-naphthyridin-2(1H)-one] | < 1 µM |  |  | 
15 |  | < 0.1 µM |  | < 0.1 µM |  |  | 1 to 10 µM | < 0.1 µM | CCN(CC)CCOc1ccc(Nc2cc3c(cn2)cc(-c2c(F)cccc2F)c(=O)n3C2CCOC2)nc1 (single isomer, unassigned) [Compound 144, (R or S)-7-((5-(2-(diethylamino)ethoxy)pyridin-2-yl)amino)-3-(2,6-difluorophenyl)-1-(tetrahydrofuran-3-yl)-1,6-naphthyridin-2(1H)-one] |  | < 1 µM |  | 
16 |  |  | 0.1 to 1 µM | < 0.1 µM | 1 to 10 µM | 1 to 5 µM |  |  | CCN(CC)CCOc1ccc(Nc2cc3c(cn2)cc(-c2cccc(SC)c2)c(=O)n3CC)nc1 [Compound 105, 7-((5-(2-(diethylamino)ethoxy)pyridin-2-yl)amino)-1-ethyl-3-(3-(methylthio)phenyl)-1,6-naphthyridin-2(1H)-one] | 1 to 10 µM |  |  | 
17 |  |  |  | < 0.1 µM | > 10 µM | 0.1 to 1 µM |  | < 0.1 µM | CCN(CC)CCOc1ccc(Nc2cc3c(cn2)cc(-c2ccccc2)c(=O)n3-c2ccncc2)nc1 [Compound 82, 7-[5-(2-Diethylamino-ethoxy)-pyridin-2-ylamino]-3-phenyl-1-pyridin-4-yl-1H-[1,6]naphthyridin-2-one] | < 1 µM |  |  | 
18 |  |  | 1 to 5 µM | < 0.1 µM | 1 to 10 µM |  |  |  | CCN(CC)CCOc1ccc(Nc2cc3c(cn2)cc(-c2ccccc2)c(=O)n3C2CCCCC2)nc1 [Compound 74, 1-cyclohexyl-7-(5-(2-(diethylamino)ethoxy)pyridin-2-ylamino)-3-phenyl-1,6-naphthyridin-2(1H)-one] | 1 to 10 µM |  |  | 
19 |  | < 0.1 µM | 0.1 to 1 µM | < 0.1 µM | 1 to 10 µM |  |  |  | CCN(CC)CCOc1ccc(Nc2cc3c(cn2)cc(-c2ccccc2)c(=O)n3C)nc1 [Compound 15, 7-[5-(2-Diethylamino-ethoxy)-pyridin-2-ylamino]-1-methyl-3-phenyl-1H-[1,6]naphthyridin-2-one] | < 1 µM |  |  | 
20 |  | > 5 µM | 0.1 to 1 µM | < 0.1 µM | > 10 µM |  |  |  | CCN(CC)CCOc1ccc(Nc2cc3c(cn2)cc(-c2cccnc2)c(=O)n3CC)nc1 [Compound 103, 7-((5-(2-(diethylamino)ethoxy)pyridin-2-yl)amino)-1-ethyl-3-(pyridin-3-yl)-1,6-naphthyridin-2(1H)-one] | 1 to 10 µM |  |  | 
